In series [1] the target is T1, Solute carrier family 22 member 1 (Homo sapiens, UniProt O15245).
T1 sequence (O15245 whole entry): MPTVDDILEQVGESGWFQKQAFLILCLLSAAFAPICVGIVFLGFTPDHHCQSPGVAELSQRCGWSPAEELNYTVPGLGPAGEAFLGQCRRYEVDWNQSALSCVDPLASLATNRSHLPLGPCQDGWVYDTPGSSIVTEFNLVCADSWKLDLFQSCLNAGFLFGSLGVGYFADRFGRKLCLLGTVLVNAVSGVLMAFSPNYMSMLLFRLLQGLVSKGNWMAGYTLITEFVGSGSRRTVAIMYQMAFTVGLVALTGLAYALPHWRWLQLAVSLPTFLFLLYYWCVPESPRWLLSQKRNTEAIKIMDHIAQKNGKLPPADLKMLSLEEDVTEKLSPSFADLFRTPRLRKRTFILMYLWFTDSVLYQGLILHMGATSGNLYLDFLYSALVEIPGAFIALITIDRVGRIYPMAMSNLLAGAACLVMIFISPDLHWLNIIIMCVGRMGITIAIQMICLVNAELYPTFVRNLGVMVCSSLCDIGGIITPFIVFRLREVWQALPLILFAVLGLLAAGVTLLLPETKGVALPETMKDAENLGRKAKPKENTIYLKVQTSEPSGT
The series is described as follows: (§1) TP_TRANSPORTER: inhibition of MPP+ uptake in Xenopus laevis oocytes. It is filed as functional, cell-based, Oocyte.

Series [2] deals with T2, Solute carrier family 22 member 1 (Mus musculus, UniProt O08966).
T2 sequence (O08966 whole entry): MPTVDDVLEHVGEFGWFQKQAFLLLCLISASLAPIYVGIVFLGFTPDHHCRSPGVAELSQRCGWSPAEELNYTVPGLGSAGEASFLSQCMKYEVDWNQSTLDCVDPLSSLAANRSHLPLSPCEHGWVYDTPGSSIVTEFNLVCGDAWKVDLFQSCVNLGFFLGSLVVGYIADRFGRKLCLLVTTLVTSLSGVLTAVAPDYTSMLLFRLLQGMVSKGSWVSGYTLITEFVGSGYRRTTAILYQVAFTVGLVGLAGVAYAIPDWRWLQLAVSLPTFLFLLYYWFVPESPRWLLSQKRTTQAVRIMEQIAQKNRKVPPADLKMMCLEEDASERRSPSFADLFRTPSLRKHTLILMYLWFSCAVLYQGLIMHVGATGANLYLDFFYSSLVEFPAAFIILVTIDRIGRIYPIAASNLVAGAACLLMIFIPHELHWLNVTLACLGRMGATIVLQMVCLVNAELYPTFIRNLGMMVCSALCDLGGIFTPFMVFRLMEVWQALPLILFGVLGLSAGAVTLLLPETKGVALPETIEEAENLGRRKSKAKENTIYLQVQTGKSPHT
Described as §1. It is filed as functional, cell-based, Oocyte.

The target in series [3] is T3, Solute carrier family 22 member 1 (Rattus norvegicus, UniProt Q63089).
T3 sequence (Q63089 whole entry): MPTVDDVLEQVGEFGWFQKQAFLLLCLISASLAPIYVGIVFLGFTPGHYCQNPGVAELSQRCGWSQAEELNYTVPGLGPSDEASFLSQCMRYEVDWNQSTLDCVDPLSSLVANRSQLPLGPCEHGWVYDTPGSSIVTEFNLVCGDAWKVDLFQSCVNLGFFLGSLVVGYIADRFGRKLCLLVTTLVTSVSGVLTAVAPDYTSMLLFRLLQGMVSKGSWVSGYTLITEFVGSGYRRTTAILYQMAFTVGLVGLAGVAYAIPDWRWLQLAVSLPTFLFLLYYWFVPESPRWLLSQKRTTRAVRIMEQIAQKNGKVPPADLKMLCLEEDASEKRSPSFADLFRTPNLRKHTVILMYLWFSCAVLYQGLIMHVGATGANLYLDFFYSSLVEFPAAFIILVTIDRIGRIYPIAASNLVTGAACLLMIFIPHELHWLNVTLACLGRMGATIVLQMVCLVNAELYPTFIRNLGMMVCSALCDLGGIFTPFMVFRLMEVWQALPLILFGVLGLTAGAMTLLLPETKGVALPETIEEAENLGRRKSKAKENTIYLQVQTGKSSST
Described as §1. It is filed as functional, cell-based, Oocyte.

The target of series [4] is T1, Solute carrier family 22 member 1. The series is described as follows: (§2) TP_TRANSPORTER: trans-stimulation of MPP+ uptake (MPP+: 1 uM, TPeA: 200 uM) in Xenopus laevis oocytes. It is filed as functional, cell-based. The note with it: oocyte.
The target in series [5] is T2, Solute carrier family 22 member 1. Described as §2. The class given is functional, cell-based. The note with it: oocyte.
Series [6] deals with T3, Solute carrier family 22 member 1. The series is described as §2. The class given is functional, cell-based. The note with it: oocyte.

Molecules are shown by their SMILES.

For the compound `CCCC[N+](CCCC)(CCCC)CCCC` [TETRABUTHYLAMMONIUM], the Ki (commonly the dissociation constant of the complex between target and ligand, obtained from inhibition or displacement) is 29.6 µM in series [1], 7.3 µM in series [2] and 17 µM in series [3].

In the case of `C[N+](C)(C)C` [TETRAMETHYLAMMONIUM], the Ki in series [1] came out at 12400 µM; in series [2] it was 2040 µM.

Regarding `CCCCC[N+](CCCCC)(CCCCC)CCCCC` [TETRAPENTYLAMMONIUM], the Activity result in series [4] is “is not an inhibitor [-]”; in series [5] it was “inhibitor [trans-inhibited: (at a rough estimate) 30 % of control]”; in series [6], “inhibitor [trans-inhibited: (at a rough estimate) 80 % of control]”.

Regarding `CCC[N+](CCC)(CCC)CCC` [TETRAPROPYLAMMONIUM], the results for the Ki in series [1], in series [2] and in series [3] were 102 µM, 19.8 µM and 21 µM, respectively.

For the compound `CC[N+](CC)(CC)CC` [TETRYLAMMONIUM], the values for the Ki in series [1], in series [2] and in series [3] were 158 µM, 128 µM and 100 µM, respectively.

Source of the values: ChEMBL document CHEMBL2074488, “Kinetic and selectivity differences between rodent, rabbit, and human organic cation transporters (OCT1)” (J Pharmacol Exp Ther, 2000).
